Results reported in patent publication US9815883B2, “Inhibiting peptides derived from TREM-like transcript 1 (TLT-1) and uses thereof” (Institut National de la Sante et de la Recherche Medicale …, priority 2010, dated 2017).

Assays:
[1] = test system: Trem-1 silenced human monocytes; experiment: TNF-α production by Trem-1 silenced monocytes; type: cell-based; details: Trem-1 siRNA; LPS/anti-TREM-1 mAb
Protocol: (I) ELISA of TNF-α produced by native or Trem-1 silenced human monocytes.
TREM-1 silencing was performed with Human Monocyte Nucleofector Kit (Amaxa) using siRNA sequences obtained from Qiagen. Isolated monocytes were electroporated with siRNA (without siRNA and with siRNA without electroporation as negative control, and with a GFP-reporter plasmid for positive control) and cultured for 24 hours in Human Monocyte Nucleofector Medium (Amaxa) before stimulation. TREM-1 expression was then assessed by quantitative RT-PCR and flow cytometry 24 hours after transfection. Medium was changed and monocytes were stimulated with LPS, anti-TREM-1 mAb and TLT-1-peptides for 24 hours. Therefore, medium was collected for cytokine measurement.

human neutrophils = experiment: Neutrophil phagocytosis and oxidative burst (Phagotest, Bursttest); type: cell-based
Protocol: Data (mean±SD) are representative of 6 different experiments.
The quantitative determination of neutrophil phagocytosis and oxidative burst was performed by flow cytometry using the Phagotest and the Bursttest (Orpegen Pharma, Heidelberg, Germany) following the manufacturers' recommendations. A FITC-labelled opsonized E. coli was used to determine the general phagocytic activity (ingestion of one or more bacteria per cell) and the individual cellular phagocytic activity (number of bacteria per cell). For evaluation of oxidative burst activity, unlabeled opsonized E. coli, fMLP, PMA LPS and activated- or non-activated-platelets (30:1) were used as stimulants and DCFDA as a fluoregenic substrate (Invitrogen) accordingly with manufacturers' instructions.

TREM-1 = experiment: NF-kB activity measurement (nuclear p50/p65 ELISA) in neutrophils; type: cell-based, human; details: LPS 0.1 μg/mL with or without αTREM-1; peptide 30 μg/mL
Protocol: (C) NF-κB nuclear translocation: ELISA of nuclear p50 and p65 NF-kB subunits of neutrophils treated for 2 hours.
Stimulated cells were collected, nuclear extracts obtained by nuclear extraction kit and NFkB activity measured with human p50/p65 combo transcription factor assay kit (Cayman Chemical) following the manufacturers' instructions.

neutrophils or monocytes = experiment: Flow cytometry binding to neutrophils or monocytes; set-up: species or system human; details: cells not expressing TREM-1 ligand
Protocol: PMNs were isolated by a Sodium Diatrizoate 13.8%/Dextran 500 8.0% density gradient (polymorphprep, AbCys). Monocytes were isolated by negative cell-sorting of PB-MNCs by Monocytes Isolation Kit II (Miltenyi). Cells were then washed twice with PBS (BioMerieux) and resuspended in complete medium (RPMI 1640 containing 100 UI/mL penicillin, 100 μg/mL streptomycin, […] Amphotericin B and 10% FCS, Eurobio) before stimulation. Purity was assessed by flow cytometry (anti-CD45, -CD14 and -CD66b, Beckman Coulter).
(§1) Isolated cells (neutrophils, monocytes or platelets) were blocked for aspecific binding with 10% human Ig (Sigma-Aldrich) for 1 hour on ice. Cells were incubated with recombinant soluble FITC-labelled TLT-1-peptides, FITC-labelled LP17 (or corresponding FITC-labelled scrambled peptides), PE-labelled anti-TREM-1 mAb (R&Dsystems), CD62P-FITC, CD66b-PE, CD45-PE, CD14-FITC (all from Beckman Coulter)

[2] = test system: TREM-1 ligand expressed on resting or thrombin-activated human platelets; experiment: Flow cytometry binding of FITC-labelled peptides to human platelets
Protocol: (B) Flow cytometry analysis of FITC-labelled LR17 (1 or 5 μg/mL) binding to TREM-1 ligand expressed on resting or thrombin-activated (5 UI/mL) human platelets is reversed by co-incubation with unlabelled LR17, sTLT-1 or LP17, a TREM-1 derived peptide.
Acid Citrate Dextrose blood samples were centrifuged (100 g, 10 min) to obtain Platelet-Rich Plasma. PRP was then centrifuged (550 g, 10 min) over a 36% (wt/vol) BSA gradient and platelets collected from the interphase before being washed in Tyrode's salts buffer (Sigma-Aldrich) supplemented with 5 mM EGTA. For activation, platelets were incubated for 30 minutes with 5 U/mL thrombin (Sigma-Aldrich) or 1 μg/mL E. Coli LPS (0111:B4, Sigma-Aldrich) at 37° C. and subsequently fixed with 2% (wt/vol) paraphormaldehyde (PFA, Sigma-Aldrich). Residual PFA was removed by two additional washing steps in Tyrode buffer. Activation was assessed by anti-CD62P (Beckman Coulter).
as §1

[3] = competition with unlabelled substance

In the case of “LQEEDAGEYGCMVDGAR (listed as Homo sapiens) [LR17]”, the “TNF-α synthesis by silenced monocytes” value [1] is reported as “did not show any effect”, the “neutrophil oxidative burst mediated by E. coli” value (human neutrophils) is reported as “decreased” and the “neutrophils' phagocytic properties” value (human neutrophils; E. coli) is reported as “did not alter”. For the same sequence, the “PMA- or fMLP-induced oxidative burst” value (human neutrophils; not shown) was “no action”, the NF-κB translocation (TREM-1) was “decreased” and the “binding to neutrophils or monocytes” value (neutrophils or monocytes) was “did not bind”. For the same sequence, the “binding of FITC-labelled LR17 to platelets” value ([2]; FITC-labelled peptide 1 or 5 μg/mL, resting or thrombin-activated (5 UI/mL) platelets) was “binds both to resting and thrombin-activated platelets”, the “effect of co-incubation on FITC-labelled LP17 binding to platelets” value [2, 3] was “decreased” and the “effect of co-incubation on FITC-labelled LR17 binding to platelets” value [2, 3] was “reversed”.
